Laboratory results as given in US11377451B2, “Compositions and methods for treating cancer” (The Regents of the University of California, priority 2019, dated 2022).

Tests used:
HK301 = assay: GI50 assay (Cell Titer Glo proliferation, 3 days); assay type: cell-based, human; conditions: Homo sapiens, 72 h; HK301, 3 days; read-out: HK301 GI50
GBM39 = assay: GI50 assay (Cell Titer Glo proliferation, 3 days); assay type: cell-based, human; conditions: Homo sapiens, 72 h; GBM39, 3 days

SMILES | GI50 (HK301) [µM] | GI50 (GBM39) [µM]
OC1COc2cc3ncnc(Nc4cccc(Br)c4F)c3cc2O1 (racemic) [JGK050, (±)-4-(3-Bromo-2-fluoroanilino)-7,8-dihydro[1,4]dioxino[2,3-g]quinazolin-7-ol] | 1.16 | 3.57
CC1Oc2cc3ncnc(Nc4cccc(Br)c4F)c3cc2OC1C (racemic) [JGK051, (±)-cis- and (±)-trans-N-(3-Bromo-2-fluorophenyl)-7,8-dimethyl-7,8-dihydro[1,4]dioxino[2,3-g]quinazolin-4-amine] | 8.25 | 24.1
C[C@@H]1Oc2cc3c(Nc4cccc(Br)c4F)ncnc3cc2O[C@@H]1C (racemic) [JGK052, (±)-cis-N-(3-Bromo-2-fluorophenyl)-7,8-dimethyl-7,8-dihydro[1,4]dioxino[2,3-g]quinazolin-4-amine] | 3.87 | 9.22
C[C@@H]1Oc2cc3ncnc(Nc4cccc(Br)c4F)c3cc2O[C@H]1C (racemic) [JGK059, (±)-trans-N-(3-Bromo-2-fluorophenyl)-7,8-dimethyl-7,8-dihydro[1,4]dioxino[2,3-g]quinazolin-4-amine] | 8.11 | 11.2
C=CC1COc2cc3ncnc(Nc4cccc(Br)c4F)c3cc2O1 (racemic) [JGK062, (±)-N-(3-Bromo-2-fluorophenyl)-7-ethenyl-7,8-dihydro[1,4]dioxino[2,3-g]quinazolin-4-amine] | 3.78 | 5.86
Fc1c(Br)cccc1Nc1ncnc2cc3c(cc12)OC(CCN1CCOCC1)CO3 (racemic) [JGK064, (±)-N-(3-Bromo-2-fluorophenyl)-7-[2-(morpholin-4-yl)ethyl]-7,8-dihydro[1,4]dioxino[2,3-g]quinazolin-4-amine] | 1.21 | 4
Fc1c(Br)cccc1Nc1ncnc2cc3c(cc12)OC(CN1CCCCC1)CO3 (racemic) [JGK065, (±)-N-(3-Bromo-2-fluorophenyl)-7-[(piperidin-1-yl)methyl]-7,8-dihydro[1,4]dioxino[2,3-g]quinazolin-4-amine] | 3.43 | 7.34
Fc1c(Br)cccc1Nc1ncnc2cc3c(cc12)OC(CN1CCCC1)CO3 (racemic) [JGK067, (±)-N-(3-Bromo-2-fluorophenyl)-7-[(pyrrolidin-1-yl)methyl]-7,8-dihydro[1,4]dioxino[2,3-g]quinazolin-4-amine] | 0.898 | 2.2
CN(C)CCC1COc2cc3ncnc(Nc4cccc(Br)c4F)c3cc2O1 (racemic) [JGK069, (±)-N-(3-Bromo-2-fluorophenyl)-7-[2-(dimethylamino)ethyl]-7,8-dihydro[1,4]dioxino[2,3-g]quinazolin-4-amine] | 0.659 | 2.17
CN1CCN(CCC2COc3cc4ncnc(Nc5cccc(Br)c5F)c4cc3O2)CC1 (racemic) [JGK070, (±)-N-(3-Bromo-2-fluorophenyl)-7-[2-(4-methylpiperazin-1-yl)ethyl]-7,8-dihydro[1,4]dioxino[2,3-g]quinazolin-4-amine] | 1.41 | 3.33
CN1CCN(CC2COc3cc4ncnc(Nc5cccc(Cl)c5F)c4cc3O2)CC1 (racemic) [JGK075, (±)-N-(3-Chloro-2-fluorophenyl)-7-[(4-methylpiperazin-1-yl)methyl]-7,8-dihydro[1,4]dioxino [2,3-g]quinazolin-4-amine] | 1.18 | 4
Fc1c(Br)cccc1Nc1ncnc2cc3c(cc12)OCC(CN1CCOCC1)O3 (racemic) [JGK076, (±)-N-(3-Bromo-2-fluorophenyl)-8-[(morpholin-4-yl)methyl]-7,8-dihydro[1,4]dioxino[2,3-g]quinazolin-4-amine] | 6.16 | 16.9
CN(C)CC1COc2cc3c(Nc4cccc(Br)c4F)ncnc3cc2O1 (racemic) [JGK077, (±)-N-(3-Bromo-2-fluorophenyl)-8-[(dimethylamino)methyl]-7,8-dihydro[1,4]dioxino[2,3-g]quinazolin-4-amine] | 6.84 | 16.7
CN1CCN(CC2COc3cc4c(Nc5cccc(Br)c5F)ncnc4cc3O2)CC1 (racemic) [JGK078, (±)-N-(3-Bromo-2-fluorophenyl)-8-[(4-methylpiperazin-1-yl)methyl]-7,8-dihydro[1,4]dioxino[2,3-g]quinazolin-4-amine] | 2.03 | 5.76
Fc1c(Br)cccc1Nc1ncnc2cc3c(cc12)OCC(CN1CCCC1)O3 (racemic) [JGK079, (±)-N-(3-Bromo-2-fluorophenyl)-8-[(pyrrolidin-1-yl)methyl]-7,8-dihydro[1,4]dioxino[2,3-g]quinazolin-4-amine] | 7.21 | 15.7
Fc1c(Br)cccc1Nc1ncnc2cc3c(cc12)OCC(CN1CCCCC1)O3 (racemic) [JGK080, (±)-N-(3-Bromo-2-fluorophenyl)-8-[(piperidin-1-yl)methyl]-7,8-dihydro[1,4]dioxino[2,3-g]quinazolin-4-amine] | 7.37 | 14.5
Fc1c(Br)cccc1Nc1ncnc2cc3c(cc12)OC(CCN1CCCC1)CO3 (racemic) [JGK084, (±)-N-(3-Bromo-2-fluorophenyl)-7-[2-(pyrrolidin-1-yl)ethyl]-7,8-dihydro[1,4]dioxino[2,3-g]quinazolin-4-amine] | 1.83 | 5.64
Fc1c(Br)cccc1Nc1ncnc2cc3c(cc12)OC(CCN1CCCCC1)CO3 (racemic) [JGK085, (±)-N-(3-Bromo-2-fluorophenyl)-7-[2-(piperidin-1-yl)ethyl]-7,8-dihydro[1,4]dioxino[2,3-g]quinazolin-4-amine] | 1.02 | 2.62
Fc1c(Br)cccc1Nc1ncnc2cc3c(cc12)OCC(CCN1CCOCC1)O3 (racemic) [JGK086, (±)-N-(3-Bromo-2-fluorophenyl)-8-[2-(morpholin-4-yl)ethyl]-7,8-dihydro[1,4]dioxino[2,3-g]quinazolin-4-amine] | 2.56 | 4.45
CN(C)CCC1COc2cc3c(Nc4cccc(Br)c4F)ncnc3cc2O1 (racemic) [JGK087, (±)-N-(3-Bromo-2-fluorophenyl)-8-[2-(dimethylamino)ethyl]-7,8-dihydro[1,4]dioxino[2,3-g]quinazolin-4-amine] | 3.74 | 5.26
CN1CCN(CCC2COc3cc4c(Nc5cccc(Br)c5F)ncnc4cc3O2)CC1 (racemic) [JGK088, (±)-N-(3-Bromo-2-fluorophenyl)-8-[2-(4-methylpiperazin-1-yl)ethyl]-7,8-dihydro[1,4]dioxino[2,3-g]quinazolin-4-amine] | 2.13 | 4.06
Fc1c(Br)cccc1Nc1ncnc2cc3c(cc12)OCC(CCN1CCCC1)O3 (racemic) [JGK089, (±)-N-(3-Bromo-2-fluorophenyl)-8-[2-(pyrrolidin-1-yl)ethyl]-7,8-dihydro[1,4]dioxino[2,3-g]quinazolin-4-amine] | 3.16 | 5.09
C#Cc1cccc(N(C(=O)[C@H](Cc2ccccc2)NC(=O)OC(C)(C)C)c2ncnc3cc(OCCOC)c(OCCOC)cc23)c1 [JGK007] | 92.1 | –
CC(C)(C)OC(=O)N(CCS(C)(=O)=O)Cc1ccc(-c2ccc3ncnc(Nc4ccc(OCc5cccc(F)c5)c(Cl)c4)c3c2)o1 [JGK008] | 81.3 | –
CCOC(=O)N(c1cccc(Cl)c1F)c1ncnc2cc3c(cc12)OCCO3 [JGK047, Ethyl (3-chloro-2-fluorophenyl)7,8-dihydro[1,4]dioxino[2,3-g]quinazolin-4-ylcarbamate] | 316 | –
